The source of these data is patent publication US20190292521A1, “COMPOSITION FOR PROMOTING GROWTH OF STEM CELLS COMPRISING PHYTOSPHINGOSINE-1-PHOSPHATE OR DERIVATIVES THEREOF, AND COMPOSITION FOR CULTURING MEDIA OF STEM CELLS COMPRISING SAME” (AXCESO BIOPHARMA CO., LTD., priority 2016, published 2019).

What all share (format): cell-based
The subject of data set [1] is Human mesenchymal stem cells. Description: Measurement of stem cell proliferation capacity (Ez-Cytox, absorbance 450 nm). The following applies: 1 uM; for increase of proliferation effect: cultured for 7 days, vs control without compound; for proliferation of stem cells: human mesenchymal stem cells, FIG. 1. How it is done:
(§1) Human mesenchymal stem cells were cultured in DMEM medium (Invitrogen) containing 10% fetal bovine serum and 1% penicillin/streptomycin at 37° C. under 5% CO2, and the medium was changed every 3 days. After culturing the cells for 24 hours, P1P, cyclic P1P, and NAPS-1-P were dissolved in DMSO (Sigma) to a concentration of 2 mM, and appropriately diluted and added to the medium such that the final concentration was 1 μM. The absorbance was measured at 450 nm using Ez-Cytox at 24 hours (1 day), 48 hours (2 days), 120 hours (5 days) and 168 hours (7 days) after the addition, and the proliferation capacity of the stem cells according to P1P, cyclic P1P and NAPS-1 were measured. For the control group, an experiment was performed under the same conditions as above except that P1P, cyclic P1P and NAPS-1-P were not included.

Data set [2] has as its system human-derived adipose stem cells. The experiment in a line: Stem cell viability according to concentration of fetal bovine serum (serum-free or low-serum medium). The following applies: read-out: viability as compared with 10% fetal bovine serum. How it is done:
Human-derived adipose stem cells were cultured in DMEM medium having different concentrations of fetal bovine serum at 37° C. under 5% CO2. After culturing for 24 hours, the cells were washed twice with PBS at 37° C. to remove the serum components. Then, the cells were cultured in new DMEM medium containing 1 μM P1P and 1% fetal bovine serum. After 4 days, the absorbance was measured at 450 nm using an Ez-Cytox Cell Viability Assay Kit (Daeil Biotech) to measure the viability of stem cells according the concentration of fetal bovine serum and P1P. For the control group, an experiment was performed under the same conditions as above except that P1P was not included.

Data set [3] has the same test system. The experiment in a line: Viability of stem cells with oxidative stress induced by hydrogen peroxide (H2O2). The following applies: 6 hours after H2O2. As for the experimental part:
Human-derived adipose stem cells were cultured in DMEM medium containing 10% fetal bovine serum and 1% penicillin/streptomycin at 37° C. under 5% CO2. After culturing the cells for 24 hours, P1P, cP1P and NAPS-1-P were dissolved in DMSO to a concentration of 2 mM, and appropriately diluted and added to the medium such that the final concentrations were 10 nM, 100 nM, 1000 nM. After 1 hour of culture, 350 μM of H2O2 was added to the stem cells and cultured. After 6 hours, the absorbance was measured at 450 nm using Ez-Cytox, and the effect of P1P and derivatives thereof on the viability of stem cells against oxidative stress was measured. For the control group, an experiment was performed under the same conditions as above except that P1P, cyclic P1P, and NAPS-1-P were not included.

Data set [4] shares this test system. Description: Growth promoting capacity on human-derived adipose stem cells. The following applies: cultured for 2 days, different concentrations; optimal effect at 10 nM and 100 nM, FIG. 2. As for the experimental part: as §1
In addition, the growth promoting-capacity of human-derived adipose stem cells was examined.

The test system is the same in data set [5]. The experiment in a line: Osteogenic differentiation capacity (Alizarin Red S staining). The following applies: osteogenic differentiation medium. As for the experimental part: Human-derived adipose stem cells were cultured in DMEM medium containing 10% fetal bovine serum and 1% penicillin/streptomycin at 37° C. under 5% CO2. After 24 hours of culture, P1P and derivatives thereof were diluted with the medium and added. After 24 hours of culture, the medium was replaced with a differentiation medium and changed with a differentiation medium every 3 days. The cells were cultured in alpha-DEM medium containing 10% fetal bovine serum, 10 nM dexamethasone, 0.2 mM ascorbic acid, 10 mM beta-glycerol phosphate and 1% penicillin/streptomycin at 37° C. under 5% CO2 as a composition for the differentiation medium. After 2 to 4 weeks, the stem cells were fixed and stained with Alizarin Red S. After removing the stem cell culture medium, the cells were washed 3 times with PBS, and after removal of PBS, the cells were fixed using 4% formaldehyde solution for 20 minutes at room temperature. After washing the cells 3 times with PBS, the cells were treated with a 2% Alizarin Red S solution for 20 minutes. […] For the control group, an experiment was performed under the same conditions as above except that P1P, cyclic P1P, and NAPS-1-P were not included.

The mark [6] stands for this setting: fetal bovine serum reduced to 2%.

As usually defined, the viability is a per cent measure of how many cells are alive, often set against a control.

Where two headings read alike, the source gives them in different places.

For `CCCCCCCCCCCCCC[C@@H](O)[C@@H](O)[C@H](COP(=O)(O)O)NC(C)=O` [NAPS-1-P, N-acetyl phytosphingosine-1-phosphate], the “increase of proliferation effect” value in data set [1] was found to be 2 fold. For the same molecule, the “proliferation of stem cells” value in data set [1] is given as “promoted the proliferation of stem cells to a similar level”. For the same molecule, the viability at 1 µM in data set [2] (setting [6]) is 70 to 80%; in data set [2] (serum-free medium), around 50%. In addition, the figures for the “Cell viability (%) by H2O2 treatment (350 uM)” value in data set [3] (compound 10 nM), in data set [3] (compound 100 nM) and in data set [3] (compound 1000 nM) were 75%, 83% and 86%, respectively. Moreover, the “cell growth / proliferation effect” value in data set [4] is reported as “showed a higher proliferation effect”.
For the molecule `CCCCCCCCCCCCCC[C@@H](O)[C@H]1OP(=O)(O)OC[C@@H]1N` [cP1P, O-cyclic P1P], the “increase of proliferation effect” value in data set [1] was found to be 2 fold. For the same molecule, in data set [1], the “proliferation of stem cells” value is “promoted the proliferation of stem cells to a similar level”. Besides, the viability at 1 µM in data set [2] (setting [6]) is 70 to 80%; in data set [2] (serum-free medium) it was around 50%. The results for the “Cell viability (%) by H2O2 treatment (350 uM)” value in data set [3] (compound 10 nM), in data set [3] (compound 100 nM) and in data set [3] (compound 1000 nM) were 77%, 84% and 86%, respectively. In addition, the osteogenic differentiation capacity result in data set [5] is “remarkably improved”. Besides, in data set [4], the “cell growth / proliferation effect” value is “showed a higher proliferation effect”.
